Here are results for six compounds from paper PMC9194936, “Preclinical Activity and Pharmacokinetic/Pharmacodynamic Relationship for a Series of Novel Benzenesulfonamide Perforin Inhibitors” (ACS Pharmacology & Translational Science, 2022).

The subject of series [1] is perforin-dependent cytotoxicity of KHYG-1 NK cells on K562 target cells. Put plainly: KHYG-1 cytotoxicity assay (51Cr-labeled K562 target cells). As to conditions: Homo sapiens; concentration inhibiting 90% of perforin-dependent cytotoxicity; K562 targets, effector/target 2:1, 4 h, RPMI 0.1% BSA; read-out: KHYG-1 IC90. Format: cell-based. The method, then: (Table 1). […] An IC90 was used rather than an IC50 as we anticipated that elevated suppression of perforin activity is likely required to preserve the transplanted bone marrow stem cells in vivo.
The inhibition of the cytotoxic activity of KHYG-1 NK cells on K562 target cells was determined as described previously.[14] Briefly, compounds were added to KHYG-1 cells at 6–7 concentrations ranging from 20 μM to 312.5 nM in 2-fold dilutions in RPMI medium (Thermo Fisher Scientific, Waltham, MA) supplemented with 0.1% bovine serum albumin (BSA; Sigma-Aldrich, St. Louis, MO) for 20 min. ^51Cr-labeled K562 leukemia target cells were added to KHYG-1 cells at an effector/target ratio of 2:1 and incubated at 37 °C for 4 h. ^51Cr release was assayed using a Harvesting Press (Skatron Instruments, Lier, Norway), and radioactivity was estimated on a Wallac Wizard 1470 Automatic γ counter (Turku, Finland). The IC90 values were calculated by fitting a four-parameter logistic sigmoidal dose–response curve to the data using Prism version 8 (GraphPad, San Diego, CA). Each IC90 value represents the mean of at least three independent experiments, where six to seven concentrations were tested in triplicate for each compound.

Another series deals with T1, perforin (Mus musculus, UniProt P10820).
T1 construct: endogenous in cells; host or cells: recipient cytotoxic lymphocytes (NK/CTL) of wild-type C57BL/6 mice, in vivo
T1 sequence (P10820 21-554): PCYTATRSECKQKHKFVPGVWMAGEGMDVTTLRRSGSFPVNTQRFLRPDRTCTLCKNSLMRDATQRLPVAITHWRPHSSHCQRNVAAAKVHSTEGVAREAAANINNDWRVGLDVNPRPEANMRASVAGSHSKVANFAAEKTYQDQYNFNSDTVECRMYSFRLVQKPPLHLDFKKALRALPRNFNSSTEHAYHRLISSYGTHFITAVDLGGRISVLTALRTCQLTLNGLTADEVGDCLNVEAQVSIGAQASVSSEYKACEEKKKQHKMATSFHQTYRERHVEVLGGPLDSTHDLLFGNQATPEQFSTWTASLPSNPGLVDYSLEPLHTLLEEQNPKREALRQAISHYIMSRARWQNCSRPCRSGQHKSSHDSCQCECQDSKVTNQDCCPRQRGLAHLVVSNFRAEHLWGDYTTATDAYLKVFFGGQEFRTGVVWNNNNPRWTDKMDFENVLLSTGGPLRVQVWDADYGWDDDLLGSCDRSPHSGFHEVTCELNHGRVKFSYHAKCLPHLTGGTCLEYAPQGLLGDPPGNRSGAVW
Put plainly: In vivo perforin inhibition (allogeneic bone marrow transfer assay). Conditions: for % perforin inhibition, spleen: 24 h after transplant. How it is done: This model was selected as a surrogate assay for graft rejection during allogeneic bone marrow/stem cell transplantation to enable rapid testing of perforin inhibition in vivo. Mice were transplanted with a mixture of equal numbers of allogeneic immunologically mismatched and syngeneic immunologically matched bone marrow. […] Allogeneic cell survival in spleen and peripheral blood was determined 24 h after transplant, using C57BL/6 perforin-deficient mice (100% perforin inhibition) and untreated C57BL/6 mice (0% perforin inhibition) as controls.
Compounds were tested for in vivo efficacy as described previously.[14] Age- (8–12 weeks) and sex-matched wild-type (H-2D^b, CD45.2^+) or perforin-deficient C57BL/6 mice (C57BL/6-Prf1^tm1Sdz/J; H-2D^b, CD45.2^+) received 12 ×10^6 bone marrow cells from both allogeneic BALB/c (H-2D^d) MHC-mismatched and syngeneic C57BL/6 (H-2D^b) MHC-matched mice (24 × 10^6 cells total). The wild-type recipient mice were treated with perforin inhibitor compounds by intraperitoneal injection in 20% hydroxypropyl-β-cyclodextrin vehicle (10 mL/kg), or with vehicle alone; perforin-deficient mice remained untreated. The mice were euthanized 24 h after bone marrow transfer for peripheral blood mononuclear cell (PBMC) and spleen collection.
Throughout the study, we utilized two strategies to distinguish between recipient, donor allogeneic, and donor syngeneic cells based on either fluorescent labeling prior to transplant or congenic marker expression (CD45.1/CD45.2). In the fluorescent dye approach, allogeneic wild-type BALB/c (H-2D^d, CD45.2^+) bone marrow was labeled with 1 μM carboxyfluorescein succinimidyl ester (CFSE) prior to mixing with syngeneic bone marrow from C57BL/6 congenic mice (CD45.1^+). Twenty-four hours after cell transfer, the harvested cells were stained with anti-CD45.1-phycoerythrin and anti-TER119-allophycocyanin monoclonal antibodies (BioLegend, San Diego, CA). TER119 was used for erythroid exclusion prior to the identification of allogeneic (CFSE^+) and syngeneic (CD45.1^+) donor cells. Using a second purely congenic marker approach, allogeneic BALB/c congenic (H-2D^d, CD45.1^+) bone marrow was mixed with syngeneic C57BL/6 double congenic (H-2D^b, CD45.1^+CD45.2^+) bone marrow prior to transfer. The harvested cells were stained with anti-CD45.1-phycoerythrin, anti-CD45.2-phycoerythrin-cyanine-7, and anti-TER119-allophycocyanin monoclonal antibodies (BioLegend, San Diego, CA). TER119 was used for erythroid exclusion, prior to identification of allogeneic donor (CD45.1^+), syngeneic donor (CD45.1^+ CD45.2^+), and recipient (CD45.2^+) cells. Dead cells were excluded using 7-aminoactinomycin D. Samples were acquired with an LSR Fortessa (BD Biosciences) and analyzed using FlowJo version 9 software (BD Biosciences). Prism version 9 (GraphPad) was used to calculate CTL indices as the percentage survival of syngeneic donor cells divided by the percentage survival of allogeneic donor cells. […] In vivo perforin inhibition animal experiments were approved by the Animal Ethics Committee of the QIMR Berghofer Medical Research Institute.

Series [2] in a line: Splenocyte cellularity and tolerability in the bone marrow transfer assay. The class given is in vivo. The method, then: For the determination of splenic cell counts, mouse spleens were harvested and the cells dispersed in media by gentle teasing and then centrifuged at 500g. Cell pellets were resuspended in media and total spleen cell counts were performed manually using a standard hemocytometer and light microscopy. […] Peripheral blood cell counts and spleen white blood cell counts were determined on a Beckman Coulter Ac.T diff hematology analyzer.

Details of series [3]: method as in PMID 28582670; AUC: concentration or dose not given beside the values. As to conditions: mouse plasma; cited from earlier work.
A short description of series [4]: Plasma protein binding by equilibrium dialysis. The class given is in vitro ADME, mouse. As to conditions: CD1, pH 7.4; mouse plasma, 10 μM, equilibrium dialysis. How it is done:
The plasma protein binding of the compounds was determined by equilibrium dialysis (12–14 kDa cutoff membrane). […] The dialysis unit was covered with an adhesive sealing film to prevent evaporation of the contents and placed in an incubator (Innova-42, New Brunswick Scientific) maintained at 37 °C with gentle mixing (80 rpm) for 6 h. Next, a 10 μL sample was aspirated from the plasma side and mixed with 90 μL of fresh PBS, whereas a 90 μL sample from the buffer side was removed and combined with 10 μL of drug-free plasma to ensure uniform matrix composition. Ice-cold acetonitrile (300 μL; Merck Millipore, Burlington, MA) containing internal standard (a BZS analogue of similar chemical structure) was added to each sample to precipitate protein and was vortexed for 2 min and centrifuged for 5 min at 13 000 rpm. The supernatant was diluted with 0.01% formic acid in ultrapure water (Milli-Q) (1:1) and quantitated by liquid chromatography–tandem mass spectrometry (LC-MS/MS). Each compound was tested in triplicate alongside control compounds known to have low (e.g., lidocaine) and high (e.g., amitriptyline) plasma protein binding. For media binding studies, the same assay was used, but RPMI with 0.1% BSA was used in place of CD1 mouse plasma.
(Equilibrium dialysis compares concentrations on both sides of a semipermeable membrane.)

The next series deals with recombinant perforin. More on the design: method as in PMID 28582670, PMID 28110869. Conditions: lytic activity of recombinant perforin against Jurkat T leukemia cells; cited from earlier work.
Setting [5] is: all dose levels (100, 75 and 50% of MTD), qd x 4.
The mark [6] stands for this setting: 100 mg/kg qd x 4 (0, 24, 48 h prior to and 18 h after transfer).

For orientation: IC90 means the concentration needed for an effect of 90%. Usually AUC stands for the area under the concentration-time curve, a measure of exposure. Broadly, the Cmax is the peak of the concentration-time curve. `CN1Cc2cc(-c3ccc(-c4cncc(NS(=O)(=O)c5ccc(F)cc5F)c4)s3)ccc2C1=O` [Compound 3, 2,4-difluoro-N-{5-[5-(2-methyl-1-oxo-2,3-dihydro-1H-isoindol-5-yl)-2-thienyl]-3-pyridinyl}benzenesulfonamide]: the IC90 in series [1] came out at 16 ± 3.6 µM. Besides, the “% perforin inhibition, spleen” value on perforin (60 mg/kg qd x 4 (0, 24, 48 h prior to and 18 h after transfer)) is on record as 7%. The “% perforin inhibition, spleen” value at perforin (90 mg/kg qd x 4 (0, 24, 48 h prior to and 18 h after transfer)) is given as 10%. For the same compound, in series [2] (setting [5]), the “reductions in splenocyte number” value was “only minor reductions” and the tolerability entry is reported as “well tolerated”. Also, in series [3], the exposure (AUC) was 220 µM·h and the Cmax was 9.8 µM.

By fraction unbound is commonly meant free concentration divided by total concentration. A word on the IC50: it is the midpoint of a concentration-inhibition curve. Turning to `CN1Cc2cc(-c3ccc(-c4cncc(NS(=O)(=O)c5ccc([N+](=O)[O-])cc5)c4)s3)ccc2C1=O` [Compound 4, N-{5-[5-(2-methyl-1-oxo-2,3-dihydro-1H-isoindol-5-yl)-2-thienyl]-3-pyridinyl}-4-nitrobenzenesulfonamide], the IC90 in series [1] was found to be 19.9 ± 3.7 µM. For the same compound, the fraction unbound at 6 h, 10 μM in series [4] was 0.0031. Also, the “% perforin inhibition, spleen” value on perforin (setting [6]) is 80.53%. Further, the IC50 in the series on recombinant perforin is 3.13 µM. Further, in series [3], the AUC was 383 µM·h and the Cmax was 64.4 µM.

For `CN1Cc2cc(-c3ccc(-c4cncc(NS(=O)(=O)c5c(F)cc(F)cc5F)c4)s3)ccc2C1=O` [Compound 5, 2,4,6-trifluoro-N-{5-[5-(2-methyl-1-oxo-2,3-dihydro-1H-isoindol-5-yl)-2-thienyl]-3-pyridinyl}benzenesulfonamide], the IC90 in series [1] stood at 10.1 ± 1.8 µM. In series [4], this compound showed a fraction unbound at 6 h, 10 μM of 0.0048. On perforin (setting [6]), the “% perforin inhibition, spleen” value is 14.88%. Further, in the series with recombinant perforin, the IC50 was 1.76 µM. Besides, in series [3], the AUC was 1019 µM·h and the Cmax is 124 µM.

For the compound `CN1Cc2cc(-c3ccc(-c4cncc(NS(=O)(=O)c5ccc(C#N)cc5)c4)s3)ccc2C1=O` [Compound 6, 4-cyano-N-{5-[5-(2-methyl-1-oxo-2,3-dihydro-1H-isoindol-5-yl)-2-thienyl]-3-pyridinyl}benzenesulfonamide], the IC90 in series [1] came out at 30.9 ± 10.5 µM. Moreover, in series [4], the fraction unbound at 6 h, 10 μM was 0.0023. At perforin (setting [6]), the “% perforin inhibition, spleen” value is reported as 22.70%. Also, the IC50 in the series with recombinant perforin is 5.17 µM. For the same compound, in series [3], the AUC is 642 µM·h and the Cmax is 87.3 µM.

Turning to `CN1Cc2cc(-c3ccc(-c4cnc(F)c(NS(=O)(=O)c5ccc(F)cc5F)c4)s3)ccc2C1=O` [Compound 8, 2,4-difluoro-N-{2-fluoro-5-[5-(2-methyl-1-oxo-2,3-dihydro-1H-isoindol-5-yl)-2-thienyl]-3-pyridinyl}benzenesulfonamide], the IC90 in series [1] is 3.54 ± 0.65 µM. Besides, the fraction unbound at 6 h, 10 μM in series [4] was 0.0003. For the same compound, on perforin (160 mg/kg qd x 4 (0, 24, 48 h prior to and 18 h after transfer)), the “% perforin inhibition, spleen” value amounted to 39.14%. Further, the IC50 in the series on recombinant perforin is 1.99 µM. In series [3], the AUC is 2885 µM·h and the Cmax was 236 µM.

Regarding `CN1Cc2cc(-c3ccc(-c4cnc(Cl)c(NS(=O)(=O)c5ccc(F)cc5F)c4)s3)ccc2C1=O` [Compound 9, N-{2-chloro-5-[5-(2-methyl-1-oxo-2,3-dihydro-1H-isoindol-5-yl)-2-thienyl]-3-pyridinyl}-2,4-difluorobenzenesulfonamide], in series [1], the IC90 came to 1.86 ± 0.44 µM. In series [4], this compound had a fraction unbound at 6 h, 10 μM of 0.0002. The “% perforin inhibition, spleen” value on perforin (120 mg/kg qd x 4 (0, 24, 48 h prior to and 18 h after transfer)) is on record as 61.28%. Moreover, the “increase in allogeneic bone marrow survival in the spleen, % of that seen in perforin-deficient mice” value at perforin (dose at or near the MTD, 0, 24, 48 h prior to and 18 h after cell transfer) amounted to 61%. For the same compound, the “reduction in splenocyte cellularity” value in series [2] (dose at or near MTD, qd x 4, after allogeneic bone marrow transplantation) is “much higher”. In addition, the IC50 with recombinant perforin was 1.03 µM. Besides, in series [3], the AUC was 2364 µM·h and the Cmax was 149 µM.
